Where “and” joins values, the source holds several entries; their conditions need not be identical. Equal entries are not always repeated. Marks after values point to notes of the source that are not given here.
How the values were obtained:
[1] = system: human naive T-cells (PBMC); assay: Primary in vitro sensitization culture of PBMC with or without mitomycin C treated T2 cells, 3H-thymidine uptake; format: cell-based; conditions: for response of PBMC, FIG. 4: PBMC incubated 6 days with mitomycin C treated T2 cells
Description: Preparation of peripheral blood mononuclear cells (PBMC). The research protocol was approved by the Committee on Research Involving Human Subjects of SUNY @ Stony Brook. After informed consent, heparinized blood was obtained by venipuncture. PBMC (peripheral blood mononuclear cells, which include lymphocytes and macrophages/monocytes) were prepared from heparinized peripheral blood by density centrifugation over Ficoll/Hypaque (Pharmacia, Piscataway, N.J.). PBMC were then washed 3 times in serum free wash medium consisting of SMEM (Gibco, Grand Island, N.Y.), and mixed (1:1) with AIM V medium (Gibco). At no time did the PBMC contact animal serum. PBMC were counted, and resuspended at 2×10^6 cells/ml in AIM V medium (Gibco).
Preparation and mitomycin C treatment of T2 cells. T2 cells were cultured in AIM V media (Gibco). Prior to treatment, they were washed, counted, and resuspended in AIM V media at 2×10^6 cells/ml. Mitomycin C (Sigma, St Louis, Mo.) was then added at 30 μg/ml for a 2 hour incubation at 37° C. The T2 cells were then washed 4 times in serum free wash media, counted with trypan blue dye exclusion, and resuspended at 1×10^6 cells/ml.
(§1) In vitro sensitization cultures. Cell cultures were performed in 96 well U-bottom trays (Linbro), with a total volume of 0.2 ml/well of AIM V medium (Gibco). PBMC (2×10^6/ml) were first admixed with equal volumes of T2 cells (1×10^6/ml), and 0.1 ml of the cell mixture was added to each well. Test compounds were then added (0.1 ml/well) at twice the desired final concentration. Each well contained 1×10^5 PBMC, 5×10^4 T2 cells, and the test compound. Control wells contained 0.1 ml of media rather than test compound. The final ratio of PBMC to T2 cells was 2:1. There were 6 replicate wells per group. The 96-well trays were then cultured for 6 days at 37° C. in a 7.5% Co2 incubator. After 6 days, 1 μCi of ^3H-thymidine was added to each well. The wells were harvested 18 hours later, and ^3H-thymidine uptake was determined with a scintillation counter (Pharmacia LKB Nuclear, Gaithersburg, Md.).

[2] = system: human naive T-cells (PBMC); assay: as above; format: cell-based
[3] = system: T-cells (E+) and non-T cells (E-); assay: In vitro sensitization culture of purified T-cells / non-T cells mixtures with mitomycin C treated T2 cells, 3H-thymidine uptake; format: cell-based, human; conditions: for MEAN/SEM (3H-thymidine uptake) / S.I.: T2 cells YES, paraphenylenediamine 10 μg/ml
Description: Purification of T-lymphocytes. Sheep erythrocyte receptor positive (E+) T-cells and negative (E−) non-T-cells were isolated by rosetting followed by centrifugation over a Ficoll-Hypaque gradient and lysis of sheep erythrocytes by ammonium chloride as described (38). The (E+) population was greater than 95% CD3+ as determined by cytofluorgraph analysis (below).
as §1
Lymphocyte proliferation assays are generally the result of T-lymphocyte proliferation. It was confirmed that this was also true of this novel in vitro sensitization system. T-cells (70%) were mixed with irradiated (6,000R) non-T cells (30%) for a test of in vitro sensitization to paraphenylenediamine in the presence of mitomycin C treated T2 cells. In a reciprocal group, non-T cells (70%) were mixed with irradiated T-cells (30%). These cell mixtures were added to the culture system, admixed with mitomycin C treated T2 cells, and paraphenylenediamine. […] The T2 cells are not functioning as antigen presenting cells (which is to be expected since the T2 cells lack antigen presenting Major Histocompatibility Complex antigens HLA-DR and HLA-A,B,C), but rather function as accessory cells.

[4] = PBMC from 4 donors, 6 days with mitomycin C treated T2 cells, each compound 3.3 μM to 60 μM
[5] = PBMC + T2 CELLS (mitomycin C treated), paraphenylenediamine 10 μg/ml
[6] = PBMC at 1 × 10^5/well, T2 cells at 5 × 10^4/well, 3 μg/ml
[7] = T-cells 30% (6,000R), non-T cells 70%
[8] = T-cells 70%, non-T cells 30% (6,000R)
[9] = PBMC 1 × 10^5/well, no T2 cells, 3 μg/ml
[10] = PBMC at 1 × 10^5/well, T2 cells at 1 × 10^5/well, 3 μg/ml
[11] = PBMC, NO T2 CELLS, paraphenylenediamine 10 μg/ml

In the case of CCCCCCCCCCCCOS(=O)(=O)[O-].[Na+] [SDS, sodium dodecyl sulfate], the “response of PBMC, FIG. 4” value [1] was “negative response”, the “induction of a response of naive human T-lymphocytes in the culture system” value ([1]; culture with accessory T2 cells) was “did not induce a response” and the “donor PBMC that responded, FIG. 2” value [2, 4] was “none”.

For Oc1ccccc1O [catechol], the “response of PBMC, FIG. 4” value [1] was “positive response”.

In the case of Nc1ccc(O)cc1 [p-aminophenol], the “response of PBMC, FIG. 4” value [1] was “positive response”.

With Nc1ccc(N)cc1 [paraphenylenediamine] the “MEAN (3H-thymidine uptake of 6 replicate wells)” value [1, 5] was 11973, the “S.I. (Stimulation index: response to antigen/response to media)” value [1, 5] was 2.09^e and the “response of naive donor PBMC to antigen” value ([1]; PBMC admixed with T2 cells at a ratio of 2:1, paraphenylenediamine 3 μg/ml, HIV gp160 P18 peptide 10 μg/ml) was “statistically significant response”. For the same compound, the “MEAN dpm (3H-thymidine uptake of 6 replicate wells)” value (shortened to “MEAN dpm”) [1, 6] was 6935 dpm, the “S.I. (Stimulation index: response to antigen/response to media)” value [1, 6] was 1.97^c and the “donor PBMC that responded, FIG. 2” value [1, 4] was 3/4 and 3. The “response of PBMC (3H-thymidine uptake), FIG. 1” value ([1]; PBMC from 4 donors, presence or absence of mitomycin C treated T2 cells, 3 μg/ml, 6 days) was “Only in the presence of T2 cells was there a response”, the “response of PBMC, FIG. 4” value [1] was “positive response” and the “MEAN/SEM (3H-thymidine uptake)” value [3, 7] was 3096/446. The S.I. [3, 7] was 0.57^, the “MEAN/SEM (3H-thymidine uptake)” value [3, 8] was 50220/2643 and the S.I. [3, 8] was 1.94^e. The “MEAN/SEM (3H-thymidine uptake)” value ([3]; T-cells YES, non-T cells NO) was 2263/317, the S.I. ([3]; T-cells YES, non-T cells NO) was 0.67^ and the response to paraphenylenediamine ([3]; T-cells admixed with T2 cells in the absence of non-T cells) was “no response”. For the same compound, the response to paraphenylenediamine ([3]; group where the T-cells had been irradiated (6,000R), mitomycin C treated T2 cells) was “no response”, the response to paraphenylenediamine ([3]; groups with non-irradiated T-cells, mitomycin C treated T2 cells) was “only detected in the groups with non-irradiated T-cells” and the “MEAN dpm” value [2, 9] was 2869 dpm. For the same compound, the “S.I. (Stimulation index: response to antigen/response to media)” value [2, 9] was 0.96, the “MEAN dpm” value [2, 10] was 7856 dpm and the “S.I. (Stimulation index: response to antigen/response to media)” value [2, 10] was 1.12. For the same compound, the “donor PBMC that responded, FIG. 3” value ([2]; PBMC from 6 donors, 6 days with mitomycin C treated T2 cells) was 3/6, the “MEAN (3H-thymidine uptake of 6 replicate wells)” value [2, 11] was 3054 and the “S.I. (Stimulation index: response to antigen/response to media)” value [2, 11] was 1.03^. For the same compound, the “response of naive donor PBMC to antigen” value ([2]; absence of T2 cells, paraphenylenediamine 3 μg/ml, HIV gp160 P18 peptide 10 μg/ml) was “no response”.

— patent publication US6713250B1, “Identification of human allergens and T-lymphocyte antigens in vitro” (The Research Foundation of State University of New York, priority 1997, dated 2004)
